Patent US9211326B2, “Method of enhancing the proliferative phase of a primary T cell response” (Tampa Bay Research Institute, priority 2013, dated 2015)
“Also recorded” adds a separate entry of the source.

Legend:
IFNg = system: IFNg; design: species or system Balb/c mice; details: mouse, in vivo
IL-2 = system: IL-2; design: species or system Balb/c mice; details: mouse, in vivo
Bcl-xL mRNA = assay: qPCR gene expression in lymph node cells: Bcl-xL; design: species or system Balb/c mice; details: mouse, in vivo
Bax mRNA = system: Bax mRNA; design: species or system Balb/c mice; details: mouse, in vivo
Vβ8+ T cells [1] = system: Vβ8+ T cells; design: species or system Balb/c mice; details: mouse, in vivo
Bcl-2 mRNA = assay: qPCR gene expression in lymph node cells: Bcl-2; design: species or system Balb/c mice; details: mouse, in vivo
Vβ8+ T cells [2] = system: Vβ8+ T cells; design: species or system Balb/c mice; details: mouse, in vivo; remark: listed apart in the source
Bcl-2 [3] = system: Bcl-2; design: species or system Balb/c mice; details: mouse, in vivo
IL-12p70 = system: IL-12p70; design: species or system Balb/c mice; details: mouse, in vivo
Bcl-2 [4] = details: cited from earlier work

Compound | serum IFNg level (IFNg) | serum IL-2 level (IL-2) | Bcl-xL mRNA level in lymph nodes (Bcl-xL mRNA) | Bax mRNA level in lymph nodes (Bax mRNA) | percentage of Annexin V positive Vβ8+ T cells (Vβ8+ T cells [1]) | Bcl-2 mRNA level in lymph nodes (Bcl-2 mRNA) | numbers of CD3+/CD8+/Vβ8+ T cells (Vβ8+ T cells [2]) | intracellular Bcl-2 protein per Vβ8+ T cell (Bcl-2 [3]) | serum IL-12p70 level (IL-12p70) | ROS induced decline in Bcl-2 (Bcl-2 [4])
Staphylococcal enterotoxin B [SEB] | significant increase | significant increase | suppressed; also recorded: reduced | did not appear to be significantly affected | significantly enhanced | suppressed; also recorded: reduction | remained elevated | equally reduced amounts | significant increase | 
O=C(O)c1ccc(/C2=C3\C=CC(=N3)/C(c3ccc(C(=O)O)cc3)=c3/cc/c4[n]3[Mn]([Cl])[n]3c2ccc3/C(c2ccc(C(=O)O)cc2)=C2/C=CC(=N2)\C=4c2ccc(C(=O)O)cc2)cc1 [MnTBAP] |  |  |  |  |  |  |  |  |  | reversed
